# Measurements published in patent US9970924B2, “Mechanism and drug targets for reducing cell edema (neuroprotection) and cytoplasmic excitability in astrocytes in normal and pathological states” (CELICA D.O.O., priority 2013, dated 2018).
# “Also recorded” adds a separate entry of the source. Like-named read-outs stand apart in the source and are kept apart here.
# Legend:
# [1] = tested on: GPR81 receptor / intracellular cAMP levels in astrocytes; assay: FRET measurements of cAMP in living primary astrocytes transfected with AKAR2; format: cell-based, rat
# From the text: Astrocytes expressing Epac1-camps or AKAR2 FRET construct were examined with a Plan NeoFluoar 40×/1.3 Oil DIC immersion objective (Carl Zeiss, Jena, Germany) and 2-fold zoom factor using Zeiss LSM510 META confocal microscope (Carl Zeiss, Jena, Germany). Cells were excited at 458 nm and images (512×512) were acquired every 3.5 s or 7 s using Lambda stack acquisition. Emission spectra were collected from META detector in eight channels (lambda stack) ranging from 470 nm to 545 nm, each with a 10.7-nm width. Two-channel (CFP and YFP) images were generated from lambda stacks by analytical software “Extract channels”. […] YFP and CFP fluorescence intensities were quantified within a region of interest selected for individual cell expressing Epac1-camps or AKAR2 using LSM 510 META software. In the graphs, FRET signal is reported as the ratio of YFP to CFP fluorescence signal after subtracting the background fluorescence from both YFP and CFP signals using Sigma Plot. […]
# The changes in YFP/CFP fluorescence emission ratio were normalized to baseline ratio values. Single-exponential (F=F0+c×exp (−t/τ)) decay functions or single-exponential rise to maximum functions (F=F0+c×(1−exp(−t/τ))) were fitted to the diagrams with YFP/CFP fluorescence emission ratios using SigmaPlot. The time-constant (τ) and YFP/CFP emission ratio amplitudes (c) were determined from the fitted curves. […]
# [Ca2+]i in astrocytes = Fluo-4 AM measurements of [Ca2+]i in cultured astrocytes; format: cell-based; conditions: for effect on hypotonicity-elicited periodic elevations in [Ca2+]i: 1 μM ADR or 10 μM Iso applied after hypotonic medium; for intracellular calcium levels on simultaneous treatment with hypotonic medium: 1 μM ADR or 10 μM Iso with hypotonic medium; for effect on ATP-induced elevation in cytosolic calcium levels: 1 mM ATP + 1 μM ADR or 10 μM Iso; for oscillations in intracellular calcium levels: agent alone: 1 μM ADR; for oscillations in intracellular calcium levels / intracellular Ca2+ levels (F/F0) within first 100 s after stimulation: 10 μM Iso; for intracellular Ca2+ levels (F/F0) within first 100 s after stimulation: agent alone: 1 mM ATP
# Protocol: Live astrocytes were incubated for 30 min at room temperature in medium containing 2 μM of fluorescent dye Fluo-4 AM (Molecular Probes, Invitrogen, Eugene, Oreg., USA). Astrocytes were then transferred to dye-free standard saline solution for at least 30 min before experimentation to allow for cleavage of the AM ester group. Time lapse images were obtained every 3.5 s for up to 10 min with the inverted Zeiss LSM780 confocal microscope with oil-immersion plan apochromatic objective (63×, 1.4 NA) and 488-nm Ar-Ion laser excitation. Emission light was acquired with a 505-530-nm bandpass emission filter. […] Average fluorescence intensity before stimulation of each cell was subtracted from intensities after stimulation (ΔF). Average fluorescence intensity changes normalized to baseline fluorescence intensity (F/F0) were determined for the first 100 s after stimulation.
# astrocytes [2] = assay: Hypotonically induced cell swelling (cell surface area) of astrocytes; format: cell-based; conditions: pretreated cells, hypotonic medium ~60% of control osmolarity
# From the text: (§1) LSM 510 Meta software was used to measure cell area and perimeter of isolated Epac1-camps positive astrocytes before and after treatment of cell with different reagents.
# astrocytes [3] = conditions: within an hour
# From the text: as §1
# astrocytes [4] = assay: Exocytotic fusion events of Alexa Fluor 546 dextran-labeled vesicles in cultured astrocytes; format: cell-based; conditions: for number of ATP triggered fusion events per cell: 1 mM ATP + 1 μM ADR or 10 μM Iso
# Protocol: Time-lapse confocal images were obtained every 2 s for 10 min with the inverted Zeiss LSM780 and Zeiss LSM510 META confocal microscopes with oil-immersion plan apochromatic objective (63×, 1.4 NA) and 543-nm He—Ne laser excitation. […] Cells were scanned by eye for an individual exocytotic event by rapidly replaying the movie in forward and reverse directions. The onset of exocytosis was defined as the first frame showing a significant decrease in Alexa Fluor^546-dextran. A circular region of interest was centered on the spot where the event occurred, and changes in the fluorescence intensities of Alexa Fluor^546-dextran were monitored over time.
# [5] = tested on: intracellular cAMP levels in astrocytes; assay: FRET measurements of cAMP in living primary astrocytes transfected with Epac1-camps; conditions: for effect on ADR triggered FRET response: 1 μM ADR
# From the text: Astrocytes expressing Epac1-camps or AKAR2 FRET construct were examined with a Plan NeoFluoar 40×/1.3 Oil DIC immersion objective (Carl Zeiss, Jena, Germany) and 2-fold zoom factor using Zeiss LSM510 META confocal microscope (Carl Zeiss, Jena, Germany). Cells were excited at 458 nm and images (512×512) were acquired every 3.5 s or 7 s using Lambda stack acquisition. Emission spectra were collected from META detector in eight channels (lambda stack) ranging from 470 nm to 545 nm, each with a 10.7-nm width. Two-channel (CFP and YFP) images were generated from lambda stacks by analytical software “Extract channels”. Channels with emission spectra 470- and 481-nm and emission spectra 513-, 524-, and 534-nm were extracted to CFP channel and YFP channel, respectively. YFP and CFP fluorescence intensities were quantified within a region of interest selected for individual cell expressing Epac1-camps or AKAR2 using LSM 510 META software. In the graphs, FRET signal is reported as the ratio of YFP to CFP fluorescence signal after subtracting the background fluorescence from both YFP and CFP signals using Sigma Plot. The values of FRET signals were normalized (set to 1.0) at the onset of the experiments. The decrease in FRET signals reflects an increase in [cAMP]i.
# 500 μM 3-Chloro-5-hydroxybenzoic acid (3-Cl-5-HBA; GPR81 receptor exogenous agonist).
# The changes in YFP/CFP fluorescence emission ratio were normalized to baseline ratio values. Single-exponential (F=F0+c×exp (−t/τ)) decay functions or single-exponential rise to maximum functions (F=F0+c×(1−exp(−t/τ))) were fitted to the diagrams with YFP/CFP fluorescence emission ratios using SigmaPlot. The time-constant (τ) and YFP/CFP emission ratio amplitudes (c) were determined from the fitted curves. F is YFP/CFP emission ratio at time t, F0 is baseline YFP/CFP emission ratio, c is YFP/CFP emission ratio amplitude of F(t=0)−F0, and τ is the time constant of individual exponential component.
structure (smiles),measurement,setting,value
O=C(O)c1cc(O)cc(Cl)c1 [3-Cl-5-HBA],intracellular cAMP levels (AKAR2 YFP/CFP ratio; uprise = cAMP increase),[1]; 500 μM 3-Cl-5-HBA,increase in intracellular cAMP levels
"CNCC(O)c1ccc(O)c(O)c1 (stereo not shown) [ADR, adrenaline]",frequency of calcium oscillations compared with hypotonic medium-stimulated cells,[Ca2+]i in astrocytes; 1 μM ADR,more frequent
same,effect on hypotonicity-elicited periodic elevations in [Ca2+]i,[Ca2+]i in astrocytes,attenuated; also recorded: ceased
same,intracellular calcium levels on simultaneous treatment with hypotonic medium,[Ca2+]i in astrocytes,"transient increase in intracellular calcium levels, which was followed by a decline to basal levels"
same,effect on ATP-induced elevation in cytosolic calcium levels,[Ca2+]i in astrocytes,diminishes the elevation in cytosolic calcium levels
same,oscillations in intracellular calcium levels,[Ca2+]i in astrocytes,induced oscillations in intracellular calcium levels
same,intracellular Ca2+ levels (F/F0) within first 100 s after stimulation,[Ca2+]i in astrocytes; 1 μM ADR,increased
same,hypotonically induced cell swelling (increase in cell surface area),astrocytes [2],reduces hypotonically induced cell swelling; also recorded: reduced
same,decrease in cell area,astrocytes [3],5-10%
same,increase in cell perimeter,astrocytes [3],30-50%
same,number of ATP triggered fusion events per cell,astrocytes [4],reduce the number of exocytotic fusion events; also recorded: diminished
same,increase in FRET response to hypotonic medium (decrease in cAMP),"[5]; ADR pre-treated cells, hypotonic medium",reversible and slowly declined to the baseline
same,EC50,"[5]; Rattus norvegicus, Astrocyte, read-out: concentration of ADR at which 50% of maximum cAMP increase was observed (EC50), maximum YFP/CFP ratio response, Epac1-camps, dose-response",~30 nM
same,EC50,"[5]; read-out: concentration of ADR at which 50% of maximum cAMP increase was observed (EC50), maximum YFP/CFP ratio response, Epac1-camps, dose-response",29 ± 0.1 nM
"Nc1ncnc2c1ncn2[C@@H]1O[C@H](COP(=O)(O)OP(=O)(O)OP(=O)(O)O)[C@@H](O)[C@H]1O [ATP, adenosine-5′-triphosphate]",intracellular Ca2+ levels (F/F0) within first 100 s after stimulation,[Ca2+]i in astrocytes; 1 μM ADR,increased
same,exocytotic fusion release events,astrocytes [4]; 1 mM ATP,triggered exocytotic fusion release events
"C[C@H]1O[C@@H](n2cnc3c(N)ncnc32)C[C@@H]1O [DDA, 2′,5′-dideoxiadenosine]",effect on ADR triggered FRET response,[5]; 100 μM DDA,slower decay kinetics
CC(C)Cn1c(=O)n(C)c(=O)c2[nH]cnc21 [IBMX],effect on Epac1-camps response to FSK,[5]; 200 μM IBMX with 50 μM FSK,increased Epac1-camps response to AC activator FSK
"CC(C)NCC(O)c1ccc(O)c(O)c1 (stereo not shown) [Iso, isoprenaline]",effect on hypotonicity-elicited periodic elevations in [Ca2+]i,[Ca2+]i in astrocytes,ceased
same,intracellular calcium levels on simultaneous treatment with hypotonic medium,[Ca2+]i in astrocytes,"transient increase in intracellular calcium levels, which was followed by a decline to basal levels"
same,effect on ATP-induced elevation in cytosolic calcium levels,[Ca2+]i in astrocytes,diminishes the elevation in cytosolic calcium levels
same,oscillations in intracellular calcium levels,[Ca2+]i in astrocytes,not
same,intracellular Ca2+ levels (F/F0) within first 100 s after stimulation,[Ca2+]i in astrocytes; 1 μM ADR,no significant difference
same,hypotonically induced cell swelling (increase in cell surface area),astrocytes [2],reduced
same,number of ATP triggered fusion events per cell,astrocytes [4],diminished
"CC(C)NCC(O)COc1cccc2ccccc12 (stereo not shown) [Pro, propranolol]",effect on ADR triggered FRET response,[5]; 1 μM Pro,completely prevented
"C[C@H](O)C(=O)[O-].[Na+] [lactate, Sodium L-lactate]",intracellular cAMP levels (AKAR2 YFP/CFP ratio; uprise = cAMP increase),[1]; 20 mM lactate,increase in intracellular cAMP levels
same,intracellular cAMP levels (Epac1-camps YFP/CFP ratio; decline = cAMP increase),[5]; 20 mM lactate,increase in intracellular cAMP levels
